Experimental data reported in patent US20200385371A1 (Propellon Therapeutics Inc., priority 2017, published 2020).

How the values were obtained:
MV4-11 cells = test: Cell proliferation assay (ATPlite); assay type: cell-based; conditions: Homo sapiens, 120 h; MV4-11 cells, five days; read-out: GI MV411 EC50
Method in brief: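 Cells seeded at 1,000/well in Alpha-MEM with 10% FBS, treated with compound over a 10-point range (top 10 μM) or DMSO. Grown five days at 37° C, 5% CO2; viability by ATPlite luminescence.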

WDR5 [1] = biological target: T1, WDR5 (Homo sapiens, UniProt P61964); test: Fluorescence Polarization (FP) binding assay
Method in brief: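 Displacement of fluorescein-labelled H3 (1-15) (30 nM, with 0.3 μM WDR5) or 9-Ala-FAM (20 nM, with 0.05 μM WDR5) in 80 mM sodium phosphate pH 6.5, 20 mM KCl, 0.008% Triton X-100. FP read at 485/528 nm (H3) or 480/540 nm (9-Ala-FAM); Kdisp from hyperbolic fit, mean of quadruplicates.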

WDR5 [2] = biological target: T1, WDR5; test: Surface Plasmon Resonance (SPR) assay; assay type: binding; set-up: Full length WDR5 with an N-terminal His tag and C-terminal AviTag; His tag (N); made in house; host or cells: E. coli; conditions: read-out: SPR Kd
Method in brief: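 Full-length biotinylated WDR5 (N-His, C-AviTag, E. coli) captured (~3000 RU) on streptavidin SA chip; Biacore T200. HBS-EP pH 7.4 plus 5% DMSO running buffer, 40 μl/min.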

Structure (SMILES)	EC50 (MV4-11 cells) [µM]	IC50 (WDR5 [1]) [µM]	Kd (WDR5 [2]) [µM]
C[C@@H]1CN(c2ncc(-c3c(F)cc(N4CCN(C)[C@@H](C)C4)c(NC(=O)c4c[nH]c(=O)cc4C(F)F)c3F)cn2)C[C@@H](C)O1 [Example 115, 4-(Difluoromethyl)-N-(3-(2-((2R,6R)-2,6-dimethylmorpholino)pyrimidin-5-yl)-6-((S)-3,4-dimethylpiperazin-1-yl)-2,4-difluorophenyl)-6-oxo-1,6-dihydropyridine-3-carboxamide]	0.00938	0.0138	0.0007
C[C@@H]1CN(c2ccc(-c3c(F)cc(N4CCN(C)[C@@H](C)C4)c(NC(=O)c4c[nH]c(=O)cc4C(F)F)c3F)cn2)C[C@H](C)O1 [Example 182, 4-(Difluoromethyl)-N-(3-(6-((2S,6R)-2,6-dimethylmorpholino)pyridin-3-yl)-6-((S)-3,4-dimethylpiperazin-1-yl)-2,4-difluorophenyl)-6-oxo-1,6-dihydropyridine-3-carboxamide]	0.031	0.0254	0.00115
CC(C)[C@@H]1CN(c2ncc(-c3c(F)cc(N4CCN(C)[C@@H](C)C4)c(NC(=O)c4c[nH]c(=O)cc4C(F)(F)F)c3F)cn2)CCO1 [Example 104, N-(6-((S)-3,4-dimethylpiperazin-1-yl)-2,4-difluoro-3-(2-((R)-2-isopropylmorpholino)pyrimidin-5-yl)phenyl)-6-oxo-4-(trifluoromethyl)-1,6-dihydropyridine-3-carboxamide]	0.0203	0.0165	0.00225
C[C@@H]1CN(c2cc(F)c(-c3ccc(C(N)=O)c(F)c3F)c(F)c2NC(=O)c2c[nH]c(=O)cc2C(F)(F)F)C[C@H](C)N1C [Example 26, N-(4′-carbamoyl-2,2′,3′,6-tetrafluoro-4-((3S,5R)-3,4,5-trimethylpiperazin-1-yl)-[1,1′-biphenyl]-3-yl)-6-oxo-4-(trifluoromethyl)-1,6-dihydropyridine-3-carboxamide]	0.316	0.0222	0.00449
C[C@@H]1CN(c2nccc(-c3c(F)cc(N4C[C@@H](C)N(C)[C@@H](C)C4)c(NC(=O)c4c[nH]c(=O)cc4C(F)F)c3F)n2)C[C@H](C)O1 [Example 78, 4-(Difluoromethyl)-N-(3-(2-((2S,6R)-2,6-dimethylmorpholino)pyrimidin-4-yl)-2,4-difluoro-6-((3S,5R)-3,4,5-trimethylpiperazin-1-yl)phenyl)-6-oxo-1,6-dihydropyridine-3-carboxamide]	0.0641	0.0147	0.00116
C[C@@H]1CN(c2ncc(-c3c(F)cc(N4C[C@@H](C)N(C)[C@@H](C)C4)c(NC(=O)c4c[nH]c(=O)cc4C(F)F)c3F)cn2)C[C@H](C)O1 [Example 111, 4-(Difluoromethyl)-N-(3-(2-((2S,6R)-2,6-dimethylmorpholino)pyrimidin-5-yl)-2,4-difluoro-6-((3S,5R)-3,4,5-trimethylpiperazin-1-yl)phenyl)-6-oxo-1,6-dihydropyridine-3-carboxamide]	0.00948	0.0141	0.00129
C[C@@H]1CN(c2ncc(-c3c(F)cc(N4C[C@@H](C)N(C)[C@@H](C)C4)c(NC(=O)c4ccc(F)cc4C(F)F)c3F)cn2)C[C@H](C)O1 [Example 109, 2-(Difluoromethyl)-N-(3-(2-((2S,6R)-2,6-dimethylmorpholino)pyrimidin-5-yl)-2,4-difluoro-6-((3S,5R)-3,4,5-trimethylpiperazin-1-yl)phenyl)-4-fluorobenzamide Formic Acid]	0.00734	0.0144	0.00259
C[C@H]1CN(c2ncc(-c3c(F)cc(N4CCN(C)[C@@H](C)C4)c(NC(=O)c4c[nH]c(=O)cc4C(F)F)c3F)cn2)C[C@H](C)O1 [Example 119, 4-(Difluoromethyl)-N-(3-(2-((2S,6S)-2,6-dimethylmorpholino)pyrimidin-5-yl)-6-((S)-3,4-dimethylpiperazin-1-yl)-2,4-difluorophenyl)-6-oxo-1,6-dihydropyridine-3-carboxamide]	0.0204	0.0117	0.0009
C[C@@H]1CN(c2ccc(-c3c(F)cc(N4CCN(C)[C@@H](C)C4)c(NC(=O)c4ccc(F)cc4C(F)(F)F)c3F)cn2)C[C@H](C)O1 [Example 176, N-(3-(6-((2S,6R)-2,6-dimethylmorpholino)pyridin-3-yl)-6-((S)-3,4-dimethylpiperazin-1-yl)-2,4-difluorophenyl)-4-fluoro-2-(trifluoromethyl)benzamide]	0.139	0.0198	0.00146
C[C@@H]1CN(c2ccc(-c3c(F)cc(N4CCN(C)[C@@H](C)C4)c(NC(=O)c4c[nH]c(=O)cc4C(F)(F)F)c3F)cn2)C[C@H](C)O1 [Example 170, N-(3-(6-((2S,6R)-2,6-dimethylmorpholino)pyridin-3-yl)-6-((S)-3,4-dimethylpiperazin-1-yl)-2,4-difluorophenyl)-6-oxo-4-(trifluoromethyl)-1,6-dihydropyridine-3-carboxamide]	0.0323	0.0156	0.00083
COc1cc(N2CCC=C(c3c(F)cc(N4CCN(C)[C@@H](C)C4)c(NC(=O)c4c[nH]c(=O)cc4C(F)(F)F)c3F)C2)ncn1 [Example 68, (S)—N-(6-(3,4-dimethylpiperazin-1-yl)-2,4-difluoro-3-(1-(6-methoxypyrimidin-4-yl)-1,2,5,6-tetrahydropyridin-3-yl)phenyl)-6-oxo-4-(trifluoromethyl)-1,6-dihydropyridine-3-carboxamide]	0.358	0.0195	0.00137
CC(C)[C@@H]1CN(c2nccc(-c3c(F)cc(N4CCN(C)[C@@H](C)C4)c(NC(=O)c4c[nH]c(=O)cc4C(F)(F)F)c3F)n2)CCO1 [Example 123, N-(6-((S)-3,4-dimethylpiperazin-1-yl)-2,4-difluoro-3-(2-((R)-2-isopropylmorpholino)pyrimidin-4-yl)phenyl)-6-oxo-4-(trifluoromethyl)-1,6-dihydropyridine-3-carboxamide]	0.0618	0.0149	0.00168
C[C@@H]1CN(c2cc(F)c(C3=CCN(c4ncc(F)cn4)C3)c(F)c2NC(=O)c2c[nH]c(=O)cc2C(F)(F)F)C[C@H](C)N1C [Example 147, N-(2,4-difluoro-3-(1-(5-fluoropyrimidin-2-yl)-2,5-dihydro-1H-pyrrol-3-yl)-6-((3S,5R)-3,4,5-trimethylpiperazin-1-yl)phenyl)-6-oxo-4-(trifluoromethyl)-1,6-dihydropyridine-3-carboxamide]	0.0376	0.0195	0.00071
C[C@H]1CN(c2cc(F)c(C3=CCN(c4ncc(C#N)s4)CC3)c(F)c2NC(=O)c2c[nH]c(=O)cc2C(F)(F)F)CCN1C [Example 98, (S)—N-(3-(1-(5-cyanothiazol-2-yl)-1,2,3,6-tetrahydropyridin-4-yl)-6-(3,4-dimethylpiperazin-1-yl)-2,4-difluorophenyl)-6-oxo-4-(trifluoromethyl)-1,6-dihydropyridine-3-carboxamide]	0.0977	0.0131	0.00077
Cc1nc(C(=O)N2CCC=C(c3c(F)cc(N4C[C@@H](C)N(C)[C@@H](C)C4)c(NC(=O)c4c[nH]c(=O)cc4C(F)(F)F)c3F)C2)cs1 [Example 188, N-(2,4-difluoro-3-(1-(2-methylthiazole-4-carbonyl)-1,2,5,6-tetrahydropyridin-3-yl)-6-((3S,5R)-3,4,5-trimethylpiperazin-1-yl)phenyl)-6-oxo-4-(trifluoromethyl)-1,6-dihydropyridine-3-carboxamide]	0.468	0.0131	0.00254
C[C@@H]1CN(c2cc(F)c(-c3cnc(N4CCOCC4)c(C#N)c3)c(F)c2NC(=O)c2c[nH]c(=O)cc2C(F)(F)F)C[C@H](C)N1C [Example 64, N-(3-(5-cyano-6-morpholinopyridin-3-yl)-2,4-difluoro-6-((3S,5R)-3,4,5-trimethylpiperazin-1-yl)phenyl)-6-oxo-4-(trifluoromethyl)-1,6-dihydropyridine-3-carboxamide]	0.0327	0.0149	0.00248
C[C@@H]1CN(c2ncc(-c3c(F)cc(N4CCN(C)[C@@H](C)C4)c(NC(=O)c4ccc(F)cc4C(F)F)c3F)cn2)C[C@H](C)O1 [Example 110, 2-(Difluoromethyl)-N-(3-(2-((2S,6R)-2,6-dimethylmorpholino)pyrimidin-5-yl)-6-((S)-3,4-dimethylpiperazin-1-yl)-2,4-difluorophenyl)-4-fluorobenzamide formic acid]	0.0332	0.0109	0.00194
C[C@H]1CN(c2ccc(-c3c(F)cc(N4CCN(C)[C@@H](C)C4)c(NC(=O)c4c[nH]c(=O)cc4C(F)F)c3F)cn2)CCO1 [Example 183, 4-(Difluoromethyl)-N-(6-((S)-3,4-dimethylpiperazin-1-yl)-2,4-difluoro-3-(6-((S)-2-methylmorpholino)pyridin-3-yl)phenyl)-6-oxo-1,6-dihydropyridine-3-carboxamide]	0.0244	0.0227	0.00134
